Usually boiling point stands for the temperature at which the vapour pressure of the liquid equals the pressure above it.

For data set [1] the following is noted: background, commercial 3M fluids; cited from earlier work.
The conditions of data set [2]: background, commercial 3M fluids; cited from earlier work. The source holds these as a separate data set.
The nature of data set [3]: Boiling point determination. It is filed as physicochemical. Conditions: for boiling point: Table 1, values understood as 'about'; for BP: Table E1. How it is done:
(§1) The boiling point (“BP”) and dielectric constant (“Dk”) of HFO-1438ez(E) and HFO-1438ez(Z) were determined and the results are reported below in Table E1. Static dielectric constant for new molecules was calculated using Kirkwood theory as described in papers by Wang and Anderko [P. Wang and A. Anderko, Computation of dielectric constants of solvent mixtures and electrolyte solutions, Fluid Phase Equilibria 186 (2001) 103-122] and Harvey and Lemmon [A. H. Harvey and E. W. Lemmon, Method for estimating dielectric constant of natural gas mixtures, International Journal of Thermophysics 26 (2005) 31-46]. The dielectric property of each of HFO-1438ez(E) and HFO-1438ez(Z) was determined using the Agilent 85070 Dielectric Probe. All measurements were made at ambient pressure and room temperature (approximately 23° C.). Prior to making measurements, the system was calibrated from 1 GHz to 20 GHz with an open circuit, a short circuit, and DI water (@22.4° C.) standard. The result of the calibration is shown in the Table E1 below for DI H2O, and is consistent with DI water at 22.4° C. The accuracy of the probe is given as: Dielectric constant, er′=er′+/−0.05|er*| with er″=er″+/−0.05|er*| and (loss=er″/er′).

A short description of data set [4]: Dielectric constant and dissipation factor, Agilent 85070 Dielectric Probe, 20 GHz. It is filed as physicochemical. Conditions: values 'about'; for Dielectric Constant (20 GHz): room temperature. On the procedure: “Dielectric Constant” means the dielectric constant as measured in accordance with ASTM D150-11 at room temperature at 20 giga hertz (GHz).
as §1

Where two headings read alike, the source gives them in different places.

As to `FC(F)(F)N1C(F)(F)C(F)(F)OC(F)(F)C1(F)F` [FC-3284], the boiling point in data set [1] is 50 °C.

On to `COC(F)(F)C(F)(F)C(F)(F)F` [HFE7000, 1-methoxyheptafluoropropane (C3F7OCH3)], for which, in data set [2], the dielectric constant is 7.4. Also, in data set [1], the boiling point is 34 °C.

`F/C=C/C(F)(C(F)(F)F)C(F)(F)F` [HFO-1438ezy(E), (E)-1,3,4,4,4-pentafluoro-(3-trifluoromethyl)-but-1-ene]: in data set [3], the boiling point was found to be 28 °C and the BP came out at 30 °C. Also, in data set [4], the “Dielectric Constant (20 GHz)” value is given as 2.43 and the “Dissipation Factor (20 GHz)” value was found to be 0.09.

For the compound `F/C=C\C(F)(C(F)(F)F)C(F)(F)F` [HFO-1438ezy(Z), (Z)-1,3,4,4,4-pentafluoro-(3-trifluoromethyl)-but-1-ene], in data set [3], the boiling point turned out to be 55 °C and the BP is 55 °C. For the same compound, the “Dielectric Constant (20 GHz)” value in data set [4] is 7.8.

(Values after patent US20250203808A1, “REFRIGERANTS FOR AND METHODS OF COOLING ELECTRONICS” (HONEYWELL INTERNATIONAL INC., priority 2023, published 2025).)
